Experimental data reported in patent publication US20250222009A1, “DINUCLEAR GOLD(I) COMPLEXES FOR TREATING CANCER” (KING FAHD UNIVERSITY OF PETROLEUM AND MINERALS, priority 2024, published 2025).

Experiments:
Bcl-2 = Bcl-2 expression, flow cytometry; assay type: cell-based, human; settings: A549, 72 h
Description: 2.0×10^5 A549 cells were seeded in 6-well plates in a complete medium and treated with the complex 3. Assay results were detected by flow cytometry on a BD FACSCanto II flow cytometer. Data were analyzed using BD FACSDiva v.8.0.1 software (BD Biosciences) unless otherwise indicated. Tumor cells were treated for 72 h with complex 3, then stained for 15 minutes with FITC Annexin-V (Thermo Fisher Scientific) and 7AAD (BD Pharmingen, Milan, Italy). Activated caspase-3,7 was detected using the CaspaTag Caspase-3,7 assay (Merck Millipore) after an incubation of 24 h with complex 3. For B-cell lymphoma/leukemia-2 protein (Bcl-2) and Bcl-2 associated x protein (Bax) analysis, cells were treated for 72 h with C3, then fixed and permeabilized (FIX & PERM Cell Fixation & Cell Permeabilization Kit, Life Technologies). […] The distribution of cells in different cell cycle phases was quantified using ModFit LT 4.0 software (Verity Software House, Topsham, ME, USA) (See: Sulaiman, A. A. A.; Casagrande, N.; Borghese, C.; Corona, G.; Isab, A. A.; Ahmad, S.; Aldinucci, D.; Altaf M. Design, Synthesis, and Preclinical Activity in Ovarian Cancer Models of New Phosphanegold(I)—N-Heterocyclic Carbene Complexes. J Med Chem 2022, 65, 14424-14440, which is incorporated herein by reference in its entirety). […]

TrxR = assay: Thioredoxin reductase activity in treated cell lysates; assay type: cell-based, human; settings: A549 cells treated 24 h
Description: Cells were treated with complex 3 (24 h) and then lysed in 50 mM Tris-HCl pH 7.6, 0.1% Triton X-100, 0.9% NaCl to obtain the TrxR activity. TrxR (EC 1.8.1.9) was assayed using the Thioredoxin Reductase Assay Kit (Sigma-Aldrich). Enzyme activity was determined by reading the absorbance at 412 nm using a spectrophotometer (Biomate 3 Thermo Spectronic, Thermo Electronic Corporation, Monza, Italy) and normalized to the protein concentration, determined with the Bio-Rad protein assay (Protein Assay Dye Reagent Concentrate, Bio-Rad Laboratories, Segrate, Italy).

[1] = tested on: PC3 (androgen-resistant prostate cancer); assay: MTT cytotoxicity assay, PC3; assay type: cell-based; settings: 72 h, mean (SD)
Description: The human epithelial ovarian cancer A2780 cell line and its cisplatin-resistant clone A2780cis were obtained from Sigma-Aldrich (Milano, Italy). A2780cis cells were continuously exposed to 1 μM cisplatin to maintain cisplatin resistance. A549 cells (Human non-small cell lung cancer), MCF7 (metastatic breast cancer), PC3 (highly aggressive metastatic prostate cancer), and MG63 (osteosarcoma) were obtained from the American Type Culture Collection (ATCC). Cells were authenticated in laboratory using the PowerPlex 16 HS System. A2780, A2780cis, and PC3 cells were cultured in RPMI-1640 medium; MG63 and MCF7 cells were cultured in DMEM, and A549 cells were cultured in F12 NUT-MIX. The culture medium contained about 10% fetal bovine serum (FBS) (Gibco, Thermo Fisher Scientific, Monza, Italy), about 1% (v/v) of penicillin (10,000 units/mL)-streptomycin (10 mg/mL), and about 1% (v/v) L-glutamine (200 mM) (all from Sigma-Aldrich). Cells were cultured at 37° C. in a 5% CO2, fully humidified atmosphere.
2.5×10^3 (PC3, MG63, MCF7) or 4.0×10^3 (A2780, A2780cis, A549) cells were seeded in 96-well microplates in 100 μL culture medium. Cells, allowed to adhere for 24 h, were then treated in triplicate with increasing concentrations of gold compounds. Cisplatin was included as a reference drug. Cell viability was evaluated using 3-(4,5-dimethylthiazol-2-yl)-2,5-diphenyltetrazolium bromide (MTT) assay (Sigma-Aldrich) after 72 h of treatment. Half maximal inhibitory concentrations (IC50), IC25, and IC75 were calculated using the CalcuSyn software version 2 (Biosoft, Ferguson, MO, USA) (See: Chou, T. C.; Talalay, P. Quantitative Analysis of Dose-Effect Relationships: The Combined Effects of Multiple Drugs or Enzyme Inhibitors. Adv. Enzyme Regul. 1984, 22, 27-55, which is incorporated herein by reference in its entirety). Fold resistance was calculated as the ratio of the IC50 of the A2780cis to that of the parental cell line A2780. Alternatively, cell viability was assayed by crystal violet staining (See: Feoktistova, M.; Geserick, P.; Leverkus, M. Crystal Violet Assay for Determining Viability of Cultured Cells. Cold Spring Harb Protoc 2016, 2016, pdb.prot087379, which is incorporated herein by reference in its entirety). Alternatively, after drug treatment, the culture Medium was removed, cells washed, fixed, and stained, and the Crystal Violet solution lasted 20 minutes (See: Sulaiman, A. A. A.; Casagrande, N.; Borghese, C.; Corona, G.; Isab, A. A.; Ahmad, S.; Aldinucci, D.; Altaf M. Design, Synthesis, and Preclinical Activity in Ovarian Cancer Models of New Phosphanegold(I)—N-Heterocyclic Carbene Complexes. J Med Chem 2022, 65, 14424-14440, which is incorporated herein by reference in its entirety).

20S proteasome = assay: 20S Proteasome Activity Assay in treated cell lysates; assay type: cell-based, human; settings: A549 cells treated 4 h
Description: Cells were treated with complex 3 (4 h), and then cells were lysed in 50 mM Tris-HCl pH 7.6, 0.1% Triton X-100, 0.9% NaCl to obtain the Proteasome activity (EC 3.4.25.1). The proteasome activity was tested using the 20S Proteasome Activity Assay kit APT280 (Merck Millipore) and a computer-interfaced GeniusPlus microplate reader (Tecan Trading AG, Switzerland). The activity was normalized to the protein concentration and expressed as a percentage of control (untreated cells).

With CC(C)c1cccc(C(C)C)c1-n1ccn(-c2c(C(C)C)cccc2C(C)C)[c]1=[Au-][P+](CCNCC[P+]([Au-]=[c]1n(-c2c(C(C)C)cccc2C(C)C)ccn1-c1c(C(C)C)cccc1C(C)C)(C1CCCCC1)C1CCCCC1)(C1CCCCC1)C1CCCCC1 [Complex 3, [(Au(IPr))2(C28H24P2)](PF6)2] the “anti-apoptotic BCL-2 expression” value (Bcl-2) was “down-regulated”, the TrxR enzymatic activity (TrxR) was “not modified” and the IC50 [1] was 240 nM. The 20S proteasome activity (20S proteasome) was “inhibited in a dose-dependent manner”.
